# Source: PubChem BioAssay AID2060614 (Molecular Pharmacology Branch, DTP, NCI, 2025)
# System: 598228-144-R-J1-PDC complex spheroids, viability
# Assay: Anticancer human tumor 598228-144-R-J1-PDC patient-derived serous endometrial adenocarcinoma cell line growth inhibition [CLK]
# Conditions: for IC50: curve of first compound; for viability, T/C: stronger effect = lower value
# Method in brief: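 Multi-cell-type spheroids combined patient-derived tumor cells with HUVEC endothelial cells and human mesenchymal stem cells. Paired agents were dosed in half-log steps down from about clinical Cmax, or from 10 microM where Cmax was unknown.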
# 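Note: spheroids exposed to compounds for seven days before readout.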
# 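Throughout, for viability, T/C: 100% = DMSO vehicle control wells.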
compound,measurement,setting,value
COc1ccc([C@@H](O)c2cc(-c3ncnc4cc(N5CCOCC5)ccc34)c(F)cc2Cl)nn1 + CNC(=O)c1ccc(Nc2nc(OC3CCCC3)c3c(-c4ccc5nc(C)oc5c4)c[nH]c3n2)c(OC)c1,IC50,second compound 0.0316 µM,6.49 µM
same,IC50,second compound 0.1 µM,5.47 µM
same,IC50,second compound 0.316 µM,4.05 µM
same,IC50,second compound 1 µM,3.67 µM
same,IC50,second compound 3.16 µM,3.71 µM
same,IC50,second compound 10 µM,2.27 µM
same,"viability, T/C","second compound 0.0316 µM, first compound 0.0316 µM",120%
same,"viability, T/C","second compound 0.0316 µM, first compound 0.1 µM",109%
same,"viability, T/C","second compound 0.0316 µM, first compound 0.316 µM",99%
same,"viability, T/C","second compound 0.0316 µM, first compound 1 µM",94.9%
same,"viability, T/C","second compound 0.0316 µM, first compound 3.16 µM",61.8%
same,"viability, T/C","second compound 0.0316 µM, first compound 10 µM",41.3%
same,"viability, T/C","second compound 0.1 µM, first compound 0.0316 µM",116%
same,"viability, T/C","second compound 0.1 µM, first compound 0.1 µM",109%
same,"viability, T/C","second compound 0.1 µM, first compound 0.316 µM",87.7%
same,"viability, T/C","second compound 0.1 µM, first compound 1 µM",90.1%
same,"viability, T/C","second compound 0.1 µM, first compound 3.16 µM",67.5%
same,"viability, T/C","second compound 0.1 µM, first compound 10 µM",32.1%
same,"viability, T/C","second compound 0.316 µM, first compound 0.0316 µM",99.4%
same,"viability, T/C","second compound 0.316 µM, first compound 0.1 µM",102%
same,"viability, T/C","second compound 0.316 µM, first compound 0.316 µM",75.5%
same,"viability, T/C","second compound 0.316 µM, first compound 1 µM",84.6%
same,"viability, T/C","second compound 0.316 µM, first compound 3.16 µM",51.9%
same,"viability, T/C","second compound 0.316 µM, first compound 10 µM",29.7%
same,"viability, T/C","second compound 1 µM, first compound 0.0316 µM",95.2%
same,"viability, T/C","second compound 1 µM, first compound 0.1 µM",102%
same,"viability, T/C","second compound 1 µM, first compound 0.316 µM",77%
same,"viability, T/C","second compound 1 µM, first compound 1 µM",78.3%
same,"viability, T/C","second compound 1 µM, first compound 3.16 µM",52.5%
same,"viability, T/C","second compound 1 µM, first compound 10 µM",25.3%
same,"viability, T/C","second compound 3.16 µM, first compound 0.0316 µM",94.3%
same,"viability, T/C","second compound 3.16 µM, first compound 0.1 µM",74.7%
same,"viability, T/C","second compound 3.16 µM, first compound 0.316 µM",90%
same,"viability, T/C","second compound 3.16 µM, first compound 1 µM",75.1%
same,"viability, T/C","second compound 3.16 µM, first compound 3.16 µM",53.9%
same,"viability, T/C","second compound 3.16 µM, first compound 10 µM",27.4%
same,"viability, T/C","second compound 10 µM, first compound 0.0316 µM",88.9%
same,"viability, T/C","second compound 10 µM, first compound 0.1 µM",90.9%
same,"viability, T/C","second compound 10 µM, first compound 0.316 µM",81.7%
same,"viability, T/C","second compound 10 µM, first compound 1 µM",77.5%
same,"viability, T/C","second compound 10 µM, first compound 3.16 µM",38.9%
same,"viability, T/C","second compound 10 µM, first compound 10 µM",28.9%
